Experiments:
RIP1 = RIP1 (Homo sapiens (Human), UniProt Q13546); experiment: KINOMEscan binding assay, RIP1; conditions: Table 35
MLKL (full length) = MLKL (full length) (Homo sapiens (Human), UniProt Q8NB16); experiment: KINOMEscan binding assay, MLKL (full length); conditions: Table 35
Description: Kinase assays. For most assays, kinase-tagged T7 phage strains were grown in parallel in 24-well blocks in an E. coli host derived from the BL21 strain. E. coli were grown to log-phase and infected with T7 phage from a frozen stock (multiplicity of infection=0.4) and incubated with shaking at 32° C. until lysis (90-150 minutes).
The Hill Slope was set to −1.

MLKL (full length), sequence (Q8NB16 whole entry): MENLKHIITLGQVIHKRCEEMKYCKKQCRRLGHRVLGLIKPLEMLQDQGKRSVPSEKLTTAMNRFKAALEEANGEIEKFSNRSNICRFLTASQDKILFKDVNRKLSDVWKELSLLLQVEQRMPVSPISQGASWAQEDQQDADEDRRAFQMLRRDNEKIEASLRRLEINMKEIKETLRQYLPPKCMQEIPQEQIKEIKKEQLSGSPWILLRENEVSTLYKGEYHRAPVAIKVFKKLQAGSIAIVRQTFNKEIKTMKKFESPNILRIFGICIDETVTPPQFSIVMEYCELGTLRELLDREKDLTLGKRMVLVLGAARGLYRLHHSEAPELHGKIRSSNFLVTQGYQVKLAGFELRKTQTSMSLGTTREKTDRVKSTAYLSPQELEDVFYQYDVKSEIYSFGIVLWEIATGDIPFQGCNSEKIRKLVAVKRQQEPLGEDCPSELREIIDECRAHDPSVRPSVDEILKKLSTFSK
RIP1, sequence (Q13546 whole entry): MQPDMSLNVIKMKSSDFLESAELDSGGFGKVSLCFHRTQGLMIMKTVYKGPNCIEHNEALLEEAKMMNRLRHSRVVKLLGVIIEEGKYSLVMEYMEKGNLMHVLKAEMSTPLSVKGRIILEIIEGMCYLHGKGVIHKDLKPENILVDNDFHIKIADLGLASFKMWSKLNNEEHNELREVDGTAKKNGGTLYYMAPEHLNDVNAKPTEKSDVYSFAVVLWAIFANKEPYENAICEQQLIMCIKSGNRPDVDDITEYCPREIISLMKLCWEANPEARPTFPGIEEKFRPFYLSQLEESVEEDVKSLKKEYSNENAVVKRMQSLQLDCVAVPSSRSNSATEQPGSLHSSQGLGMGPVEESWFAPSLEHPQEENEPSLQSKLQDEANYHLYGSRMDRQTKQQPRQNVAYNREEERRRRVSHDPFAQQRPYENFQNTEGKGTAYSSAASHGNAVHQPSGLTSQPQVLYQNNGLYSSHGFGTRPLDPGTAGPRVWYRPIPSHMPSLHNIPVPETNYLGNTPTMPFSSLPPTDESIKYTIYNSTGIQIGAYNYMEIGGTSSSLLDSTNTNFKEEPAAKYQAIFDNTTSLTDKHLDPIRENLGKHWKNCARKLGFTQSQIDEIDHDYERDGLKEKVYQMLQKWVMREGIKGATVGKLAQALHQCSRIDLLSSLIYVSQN

SMILES	Kd (RIP1) [µM]	Kd (MLKL (full length)) [µM]
NC(=O)c1c(-c2ccc(NS(=O)(=O)c3ccccc3)cc2)n[nH]c1Nc1ccccn1 [Compound 133, 3-(4-(phenylsulfonamido)phenyl)-5-(pyridin-2-ylamino)-1H-pyrazole-4-carboxamide]	> 30	
CCS(=O)(=O)Nc1ccc(-c2n[nH]c(Nc3ccccn3)c2C(N)=O)cc1 [Compound 131, 3-(4-(ethylsulfonamido)phenyl)-5-(pyridin-2-ylamino)-1H-pyrazole-4-carboxamide]	> 30	< 0.01
CCS(=O)(=O)Nc1ccc(-c2n[nH]c(Nc3cnc(C(C)(C)C)cn3)c2C(N)=O)cc1 [Compound 181, 5-((5-(tert-butyl)pyrazin-2-yl)amino)-3-(4-(ethylsulfonamido)phenyl)-1H-pyrazole-4-carboxamide]	> 30	< 0.01
NC(=O)c1c(-c2ccc(NS(=O)(=O)Cc3ccc(Cl)c(Cl)c3)cc2)n[nH]c1Nc1cccc(C(F)(F)F)n1 [Compound 56, 3-(4-((3,4-dichlorophenyl)methylsulfonamido)phenyl)-5-((6-(trifluoromethyl)pyridin-2-yl)amino)-1H-pyrazole-4-carboxamide]	> 30	
CC(C)S(=O)(=O)Nc1ccc(-c2n[nH]c(Nc3cnccn3)c2C(N)=O)cc1 [Compound 71, 3-(4-((1-methylethyl)sulfonamido)phenyl)-5-(pyrazin-2-ylamino)-1H-pyrazole-4-carboxamide]	> 30	< 0.01
NC(=O)c1c(-c2ccc(NS(=O)(=O)C3CC3)cc2)n[nH]c1Nc1cccc(C(F)(F)F)n1 [Compound 52, 3-(4-(cyclopropanesulfonamido)phenyl)-5-((6-(trifluoromethyl)pyridin-2-yl)amino)-1H-pyrazole-4-carboxamide]	> 30	< 0.01
C#CCS(=O)(=O)Nc1ccc(-c2n[nH]c(Nc3ccnc(OCCOC)c3)c2C(N)=O)cc1 [Compound 109, 5-((2-(2-methoxyethoxy)pyridin-4-yl)amino)-3-(4-(prop-2-yn-1-ylsulfonamido)phenyl)-1H-pyrazole-4-carboxamide]	> 30	< 0.01
CCS(=O)(=O)Nc1ccc(-c2n[nH]c(Nc3ccc4ccccc4n3)c2C(N)=O)cc1 [Compound 89, 3-(4-(ethylsulfonamido)phenyl)-5-(quinolin-2-ylamino)-1H-pyrazole-4-carboxamide]		< 0.01
CCS(=O)(=O)Nc1ccc(-c2n[nH]c(Nc3cc(C(F)(F)F)ccn3)c2C(N)=O)cc1 [Compound 85, 3-(4-(ethylsulfonamido)phenyl)-5-((4-(trifluoromethyl)pyridin-2-yl)amino)-1H-pyrazole-4-carboxamide]	> 30	
CCS(=O)(=O)Nc1ccc(-c2n[nH]c(Nc3cccc(C(F)(F)F)n3)c2C(N)=O)cc1OCc1cccnc1 [Compound 33, 3-(4-(ethylsulfon-amido)-3-(pyridin-3-ylmethoxy)phenyl)-5-((6-(trifluoro-methyl)pyridin-2-yl)amino)-1H-pyrazole-4-carboxamide]	> 30	
NC(=O)c1c(-c2ccc(NS(=O)(=O)Cc3ccccc3Cl)cc2)n[nH]c1Nc1cccc(C(F)(F)F)n1 [Compound 58, 3-(4-(((2-chlorophenyl)methyl)sulfonamido)phenyl)-5-((6-(trifluoromethyl)pyridin-2-yl)amino)-1H-pyrazole-4-carboxamide]	> 30	
NC(=O)c1c(-c2ccc(NS(=O)(=O)Cc3ccccc3)cc2)n[nH]c1Nc1cnccn1 [Compound 77, 3-(4-((phenylmethyl)sulfonamido)phenyl)-5-(pyrazin-2-ylamino)-1H-pyrazole-4-carboxamide]	> 30	
CCS(=O)(=O)Nc1ccc(-c2n[nH]c(Nc3cccc(C)n3)c2C(N)=O)cc1 [Compound 94, 3-(4-(ethylsulfonamido)phenyl)-5-((6-methylpyridin-2-yl)amino)-1H-pyrazole-4-carboxamide]	> 30	
NC(=O)c1c(-c2ccc(NS(=O)(=O)Cc3cccc(Cl)c3)cc2)n[nH]c1Nc1ccccn1 [Compound 129, 3-(4-(((3-chlorophenyl)methyl)sulfonamido)phenyl)-5-(pyridin-2-ylamino)-1H-pyrazole-4-carboxamide]	> 30	

Results, then the compound that gave them:

Kd (RIP1) [µM]	Kd (MLKL (full length)) [µM]	SMILES
	< 0.01	CCS(=O)(=O)Nc1ccc(-c2n[nH]c(Nc3ccc(OC)cn3)c2C(N)=O)cc1 [Compound 88, 3-(4-(ethylsulfonamido)phenyl)-5-((5-methoxypyridin-2-yl)amino)-1H-pyrazole-4-carboxamide]
	< 0.01	CCS(=O)(=O)Nc1ccc(-c2n[nH]c(Nc3ccnc(OC)c3)c2C(N)=O)cc1 [Compound 121, 3-(4-(ethylsulfonamido)phenyl)-5-((2-methoxypyridin-4-yl)amino)-1H-pyrazole-4-carboxamide]
> 30		NC(=O)c1c(-c2ccc(NS(=O)(=O)CCc3ccccc3)cc2)n[nH]c1Nc1ccccn1 [Compound 130, 3-(4-((2-phenylethyl)sulfonamido)phenyl)-5-(pyridin-2-ylamino)-1H-pyrazole-4-carboxamide]
> 30		CCS(=O)(=O)Nc1ccc(-c2n[nH]c(Nc3cccc(OCCOC)n3)c2C(N)=O)cc1 [Compound 128, 3-(4-(ethylsulfonamido)phenyl)-5-((6-(2-methoxyethoxy)pyridin-2-yl)amino)-1H-pyrazole-4-carboxamide]
> 30	< 0.01	NC(=O)c1c(-c2ccc(NS(=O)(=O)CC(F)F)cc2)n[nH]c1Nc1cccc(C(F)(F)F)n1 [Compound 49, 3-(4-((2,2-difluoroethyl)sulfonamido)phenyl)-5-((6-(trifluoromethyl)pyridin-2-yl)amino)-1H-pyrazole-4-carboxamide]
> 30	< 0.01	COCCOc1cc(Nc2[nH]nc(-c3ccc(NS(=O)(=O)C(F)(F)F)cc3)c2C(N)=O)ccn1 [Compound 114, 5-((2-(2-methoxyethoxy)pyridin-4-yl)amino)-3-(4-((trifluoromethyl)sulfonamido)phenyl)-1H-pyrazole-4-carboxamide]
> 30	< 0.01	CC(C)S(=O)(=O)Nc1ccc(-c2n[nH]c(Nc3cccc(C(F)(F)F)n3)c2C(N)=O)cc1 [Compound 54, 3-(4-((1-methylethyl)sulfonamido)phenyl)-5-((6-(trifluoromethyl)pyridin-2-yl)amino)-1H-pyrazole-4-carboxamide]
> 30		NC(=O)c1c(-c2ccc(NS(=O)(=O)Cc3ccc(F)cc3)cc2)n[nH]c1Nc1cccc(C(F)(F)F)n1 [Compound 55, 3-(4-(((4-fluorophenyl)methyl)sulfonamido)phenyl)-5-((6-(trifluoromethyl)pyridin-2-yl)amino)-1H-pyrazole-4-carboxamide]
> 30		NC(=O)c1c(-c2ccc(NS(=O)(=O)CC3CCC3)cc2)n[nH]c1Nc1ccccn1 [Compound 134]
> 30		CCS(=O)(=O)Nc1ccc(-c2n[nH]c(Nc3cnccn3)c2C(N)=O)cc1OC [Compound 61, 3-(4-(ethylsulfon-amido)-3-methoxy-phenyl)-5-(pyrazin-2-ylamino)-1H-pyrazole-4-carboxamide]
> 30		NC(=O)c1c(-c2ccc(NS(=O)(=O)C3CCCCC3)cc2)n[nH]c1Nc1cnccn1 [Compound 74, 3-(4-(cyclohexanesulfonamido)phenyl)-5-(pyrazin-2-ylamino)-1H-pyrazole-4-carboxamide]

From patent publication US20250074891A1 (Anaxis Pharma Pty Ltd., priority 2021, published 2025)
